Source: ChEMBL document CHEMBL1201862, “PubChem BioAssay data set” (2004)
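Where inhibition never reached the appropriate level, the endpoint shown equals the highest concentration tested. Otherwise, values were interpolated linearly from a five-concentration, 48-hour dose response in 96-well plates. Here, GI50 denotes the concentration required for 50% inhibition of growth.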 Calls of active or inactive are those of the source. Rule as the data show it: active = GI50 up to about 1.1 µM and inactive = higher.

Tests used:
Assay in all cases: NCI-60 cell line screen, 48 h
[1] = test system: MDA-MB-231
[2] = test system: SNB-75
[3] = test system: HCT-15
[4] = test system: SF-268
[5] = test system: RPMI-8226
[6] = test system: LOX IMVI
[7] = test system: SNB-19
[8] = test system: OVCAR-5
[9] = test system: SK-MEL-28
[10] = test system: K562
[11] = test system: SK-MEL-5
[12] = test system: TK-10
[13] = test system: COLO 205
[14] = test system: NCI-H522
[15] = test system: T47D
[16] = test system: NCI-H23
[17] = test system: UO-31
[18] = test system: A498
[19] = test system: Malme-3M
[20] = test system: RXF 393

| Structure (SMILES) | GI50 [1] | GI50 [2] | GI50 [3] [µM] | GI50 [4] | GI50 [5] | GI50 [6] | GI50 [7] | GI50 [8] | GI50 [9] | GI50 [10] | GI50 [11] | GI50 [12] | GI50 [13] | GI50 [14] | GI50 [15] | GI50 [16] | GI50 [17] | GI50 [18] | GI50 [19] | GI50 [20] |
| --- | --- | --- | --- | --- | --- | --- | --- | --- | --- | --- | --- | --- | --- | --- | --- | --- | --- | --- | --- | --- |
| CC(C)=Cc1cc(CCC/C(C)=C/Cc2c(O)cc(C)c(C(=O)O)c2O)co1 | 39 µM (inactive) | > 100 µM (inactive) | > 100 | > 100 µM (inactive) | 26.1 µM (inactive) | 86.9 µM (inactive) | > 100 µM (inactive) | > 100 µM (inactive) | > 100 µM (inactive) | 0.203 µM (active) | > 100 µM (inactive) | > 100 µM (inactive) | > 100 µM (inactive) | 12.9 µM (inactive) | 67.1 µM (inactive) | > 100 µM (inactive) | > 100 µM (inactive) | – | – | – |
| CSCSSC | – | 52.1 µM (inactive) | – | > 100 µM (inactive) | 56.5 µM (inactive) | 17.7 µM (inactive) | > 100 µM (inactive) | > 100 µM (inactive) | > 57.3 µM (inactive) | 95.3 µM (inactive) | > 100 µM (inactive) | > 100 µM (inactive) | > 100 µM (inactive) | > 100 µM (inactive) | > 100 µM (inactive) | > 83 µM (inactive) | > 100 µM (inactive) | 0.0231 µM (active) | 77.1 µM (inactive) | > 100 µM (inactive) |
| CSc1ccc(/C=C2\N=C(c3ccccc3)N(/N=C/c3cc4cc(C)ccc4nc3Cl)C2=O)cc1 | 19.6 µM (inactive) | 21.2 µM (inactive) | 23.3 | 19.1 µM (inactive) | 27.6 µM (inactive) | 18.6 µM (inactive) | 16.7 µM (inactive) | 22.9 µM (inactive) | 18.2 µM (inactive) | 22 µM (inactive) | 16.1 µM (inactive) | 16.9 µM (inactive) | 16.7 µM (inactive) | – | 22.9 µM (inactive) | – | 15 µM (inactive) | 17.5 µM (inactive) | – | – |
| O=c1c(Cl)c(Cl)cnn1CCCl | – | 11.1 µM (inactive) | 2.64 | 3.83 µM (inactive) | 6.5 µM (inactive) | 2.86 µM (inactive) | 7.03 µM (inactive) | 16.5 µM (inactive) | 2.08 µM (inactive) | 2.06 µM (inactive) | 3.4 µM (inactive) | 15.9 µM (inactive) | 2.24 µM (inactive) | 0.558 µM (active) | 3.34 µM (inactive) | 2.52 µM (inactive) | 5.75 µM (inactive) | 13.1 µM (inactive) | 2.56 µM (inactive) | 2.09 µM (inactive) |
| CCCCCCCCCCC(C(=O)O)C1(C(=O)O)CCC(=O)O1 (stereo unspecified) | > 100 µM (inactive) | > 100 µM (inactive) | > 100 | > 100 µM (inactive) | > 100 µM (inactive) | > 100 µM (inactive) | > 100 µM (inactive) | > 100 µM (inactive) | > 100 µM (inactive) | > 100 µM (inactive) | – | > 100 µM (inactive) | > 100 µM (inactive) | > 100 µM (inactive) | > 100 µM (inactive) | > 100 µM (inactive) | > 100 µM (inactive) | – | – | > 100 µM (inactive) |
| CC(C)=CCN1c2ccccc2[C@@]2(CC=C(C)C)CCN(C)[C@@H]12 [(+)-DEBROMOFLUSTRAMINE B] | 21.4 µM (inactive) | 26.1 µM (inactive) | 25.6 | 46.3 µM (inactive) | 21.6 µM (inactive) | 15.1 µM (inactive) | 22.3 µM (inactive) | > 100 µM (inactive) | 35.5 µM (inactive) | 19.6 µM (inactive) | 17.6 µM (inactive) | 35.9 µM (inactive) | 13.9 µM (inactive) | 18.6 µM (inactive) | 20.7 µM (inactive) | 40.5 µM (inactive) | 14.8 µM (inactive) | – | 17.7 µM (inactive) | 28.5 µM (inactive) |
